Test system: Kv3.1 α-subunit mRNA
Test: Experiment 1: in situ hybridization of Kv3.1 α-subunit mRNA in brain, chronic PCP rat model of schizophrenia with antipsychotic co-treatment
Format: in vivo

In the case of `CN1CCN(C2=Nc3ccc(F)cc3Nc3sc4ccccc4c32)CC1.O=C(O)/C=C\C(=O)O` [Y-931, 8-fluoro-12-(4-methylpiperazin-1-yl)-6H-[l]benzothieno[2,3-b][1,5]benzo-diazepine monomaleate], the “Kv3.1 α-subunit mRNA expression” value (ACg, PCP + drug 0.3 mg/kg/day) is reported as 15.36 ± 0.29 PSL/mm^2, the “Kv3.1 α-subunit mRNA expression” value (ACg, PCP + drug 1 mg/kg/day) is reported as 15.10 ± 0.92 PSL/mm^2 and the “Kv3.1 α-subunit mRNA expression” value (ACg, PCP + drug 3 mg/kg/day) is reported as 15.40 ± 0.83 PSL/mm^2. For the same compound, the “Kv3.1 α-subunit mRNA expression” value (ACg, PCP + drug 10 mg/kg/day) was 14.82 ± 0.74 PSL/mm^2, the “Kv3.1 α-subunit mRNA expression” value (AcbC, PCP + drug 0.3 mg/kg/day) was 7.65 ± 0.40 PSL/mm^2 and the “Kv3.1 α-subunit mRNA expression” value (AcbC, PCP + drug 1 mg/kg/day) was 8.40 ± 0.63 PSL/mm^2. The “Kv3.1 α-subunit mRNA expression” value (AcbC, PCP + drug 3 mg/kg/day) was 8.44 ± 0.43 PSL/mm^2, the “Kv3.1 α-subunit mRNA expression” value (AcbC, PCP + drug 10 mg/kg/day) was 8.42 ± 0.53 PSL/mm^2 and the “Kv3.1 α-subunit mRNA expression” value (AcbS, PCP + drug 0.3 mg/kg/day) was 10.24 ± 0.64 PSL/mm^2. For the same compound, the “Kv3.1 α-subunit mRNA expression” value (AcbS, PCP + drug 1 mg/kg/day) was 11.55 ± 0.50 PSL/mm^2, the “Kv3.1 α-subunit mRNA expression” value (AcbS, PCP + drug 3 mg/kg/day) was 11.11 ± 0.27 PSL/mm^2 and the “Kv3.1 α-subunit mRNA expression” value (AcbS, PCP + drug 10 mg/kg/day) was 11.26 ± 0.67 PSL/mm^2. The “Kv3.1 α-subunit mRNA expression” value (Au1, PCP + drug 0.3 mg/kg/day) was 17.02 ± 1.26 PSL/mm^2, the “Kv3.1 α-subunit mRNA expression” value (Au1, PCP + drug 1 mg/kg/day) was 18.48 ± 1.36 PSL/mm^2 and the “Kv3.1 α-subunit mRNA expression” value (Au1, PCP + drug 3 mg/kg/day) was 16.76 ± 0.32 PSL/mm^2. The “Kv3.1 α-subunit mRNA expression” value (Au1, PCP + drug 10 mg/kg/day) was 17.98 ± 0.68 PSL/mm^2, the “Kv3.1 α-subunit mRNA expression” value (CA1pd, PCP + drug 0.3 mg/kg/day) was 16.80 ± 1.23 PSL/mm^2 and the “Kv3.1 α-subunit mRNA expression” value (CA1pd, PCP + drug 1 mg/kg/day) was 18.34 ± 0.91 PSL/mm^2. For the same compound, the “Kv3.1 α-subunit mRNA expression” value (CA1pd, PCP + drug 3 mg/kg/day) was 16.47 ± 0.98 PSL/mm^2, the “Kv3.1 α-subunit mRNA expression” value (CA1pd, PCP + drug 10 mg/kg/day) was 19.18 ± 2.03 PSL/mm^2 and the “Kv3.1 α-subunit mRNA expression” value (CA2pd, PCP + drug 0.3 mg/kg/day) was 24.07 ± 1.74 PSL/mm^2. For the same compound, the “Kv3.1 α-subunit mRNA expression” value (CA2pd, PCP + drug 1 mg/kg/day) was 20.07 ± 1.71 PSL/mm^2, the “Kv3.1 α-subunit mRNA expression” value (CA2pd, PCP + drug 3 mg/kg/day) was 21.47 ± 2.23 PSL/mm^2 and the “Kv3.1 α-subunit mRNA expression” value (CA2pd, PCP + drug 10 mg/kg/day) was 22.31 ± 1.57 PSL/mm^2. For the same compound, the “Kv3.1 α-subunit mRNA expression” value (CA3pd, PCP + drug 0.3 mg/kg/day) was 34.10 ± 1.52 PSL/mm^2, the “Kv3.1 α-subunit mRNA expression” value (CA3pd, PCP + drug 1 mg/kg/day) was 33.99 ± 3.29 PSL/mm^2 and the “Kv3.1 α-subunit mRNA expression” value (CA3pd, PCP + drug 3 mg/kg/day) was 34.72 ± 1.24 PSL/mm^2. For the same compound, the “Kv3.1 α-subunit mRNA expression” value (CA3pd, PCP + drug 10 mg/kg/day) was 33.90 ± 2.52 PSL/mm^2, the “Kv3.1 α-subunit mRNA expression” value (DGgd, PCP + drug 0.3 mg/kg/day) was 38.38 ± 1.53 PSL/mm^2 and the “Kv3.1 α-subunit mRNA expression” value (DGgd, PCP + drug 1 mg/kg/day) was 39.21 ± 1.75 PSL/mm^2. For the same compound, the “Kv3.1 α-subunit mRNA expression” value (DGgd, PCP + drug 3 mg/kg/day) was 36.93 ± 2.53 PSL/mm^2, the “Kv3.1 α-subunit mRNA expression” value (DGgd, PCP + drug 10 mg/kg/day) was 36.11 ± 2.06 PSL/mm^2 and the “Kv3.1 α-subunit mRNA expression” value (DLStr, PCP + drug 0.3 mg/kg/day) was 6.55 ± 0.53 PSL/mm^2. The “Kv3.1 α-subunit mRNA expression” value (DLStr, PCP + drug 1 mg/kg/day) was 5.99 ± 0.96 PSL/mm^2, the “Kv3.1 α-subunit mRNA expression” value (DLStr, PCP + drug 3 mg/kg/day) was 7.13 ± 0.70 PSL/mm^2 and the “Kv3.1 α-subunit mRNA expression” value (DLStr, PCP + drug 10 mg/kg/day) was 7.46 ± 0.86 PSL/mm^2. For the same compound, the “Kv3.1 α-subunit mRNA expression” value (IL, PCP + drug 0.3 mg/kg/day) was 11.64 ± 0.40 PSL/mm^2, the “Kv3.1 α-subunit mRNA expression” value (IL, PCP + drug 1 mg/kg/day) was 11.33 ± 0.60 PSL/mm^2 and the “Kv3.1 α-subunit mRNA expression” value (IL, PCP + drug 3 mg/kg/day) was 12.91 ± 0.38 PSL/mm^2. The “Kv3.1 α-subunit mRNA expression” value (IL, PCP + drug 10 mg/kg/day) was 11.55 ± 0.45 PSL/mm^2, the “Kv3.1 α-subunit mRNA expression” value (IO, PCP + drug 0.3 mg/kg/day) was 17.52 ± 0.95 PSL/mm^2 and the “Kv3.1 α-subunit mRNA expression” value (IO, PCP + drug 1 mg/kg/day) was 15.49 ± 0.30 PSL/mm^2. For the same compound, the “Kv3.1 α-subunit mRNA expression” value (IO, PCP + drug 3 mg/kg/day) was 17.52 ± 0.36 PSL/mm^2, the “Kv3.1 α-subunit mRNA expression” value (IO, PCP + drug 10 mg/kg/day) was 15.30 ± 0.62 PSL/mm^2 and the “Kv3.1 α-subunit mRNA expression” value (M1, PCP + drug 0.3 mg/kg/day) was 15.33 ± 0.38 PSL/mm^2. The “Kv3.1 α-subunit mRNA expression” value (M1, PCP + drug 1 mg/kg/day) was 14.81 ± 0.80 PSL/mm^2, the “Kv3.1 α-subunit mRNA expression” value (M1, PCP + drug 3 mg/kg/day) was 17.01 ± 0.75 PSL/mm^2 and the “Kv3.1 α-subunit mRNA expression” value (M1, PCP + drug 10 mg/kg/day) was 16.51 ± 0.67 PSL/mm^2. The “Kv3.1 α-subunit mRNA expression” value (M2, PCP + drug 0.3 mg/kg/day) was 13.23 ± 0.29 PSL/mm^2.

— US20030224416A1, “Schizophrenia related gene” (priority 2002, published 2003)
